Assay results reported in publication PMC2925244 (Current biology : CB, 2010).

Assays:
Type in all cases: cell-based
hTAS2R43 [1] = target: T1, hTAS2R43 (Homo sapiens, UniProt P59537); experiment: calcium imaging in transfected cells, agonist at […]
T1 sequence (P59537 1-309): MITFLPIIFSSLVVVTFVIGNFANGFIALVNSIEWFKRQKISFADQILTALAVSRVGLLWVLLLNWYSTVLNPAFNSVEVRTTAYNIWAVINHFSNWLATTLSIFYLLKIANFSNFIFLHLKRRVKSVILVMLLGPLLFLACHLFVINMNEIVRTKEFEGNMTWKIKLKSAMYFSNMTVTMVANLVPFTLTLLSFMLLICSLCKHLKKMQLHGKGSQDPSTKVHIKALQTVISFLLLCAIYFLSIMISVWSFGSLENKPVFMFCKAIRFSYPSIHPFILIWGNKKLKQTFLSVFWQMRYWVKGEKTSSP

hTAS2R40 = hTAS2R40 (Homo sapiens, UniProt P59535); experiment: calcium imaging in transfected cells, […] GIV3727 against […] cohumulone; conditions: read-out: % activation in presence of GIV3727
hTAS2R31 = target: T2, hTAS2R31 (Homo sapiens, UniProt P59538); experiment: FLIPR calcium imaging in HEK293 cells stably expressing hTAS2R31 and G16gust44
T2 sequence (P59538 1-309): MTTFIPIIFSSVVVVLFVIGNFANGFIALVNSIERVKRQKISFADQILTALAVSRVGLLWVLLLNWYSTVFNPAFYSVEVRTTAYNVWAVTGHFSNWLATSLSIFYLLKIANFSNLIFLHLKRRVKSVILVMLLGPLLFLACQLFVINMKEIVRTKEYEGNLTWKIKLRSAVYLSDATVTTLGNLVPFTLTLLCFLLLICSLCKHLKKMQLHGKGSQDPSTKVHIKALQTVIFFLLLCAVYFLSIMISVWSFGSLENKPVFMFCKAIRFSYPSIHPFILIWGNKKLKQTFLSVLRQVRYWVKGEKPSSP

hTAS2R7 = target: T3, hTAS2R7 (Homo sapiens, UniProt Q9NYW3); experiment: calcium imaging in transfected cells, […] GIV3727 against […] cromolyn; conditions: read-out: % activation in presence of GIV3727
T3 sequence (Q9NYW3 1-318): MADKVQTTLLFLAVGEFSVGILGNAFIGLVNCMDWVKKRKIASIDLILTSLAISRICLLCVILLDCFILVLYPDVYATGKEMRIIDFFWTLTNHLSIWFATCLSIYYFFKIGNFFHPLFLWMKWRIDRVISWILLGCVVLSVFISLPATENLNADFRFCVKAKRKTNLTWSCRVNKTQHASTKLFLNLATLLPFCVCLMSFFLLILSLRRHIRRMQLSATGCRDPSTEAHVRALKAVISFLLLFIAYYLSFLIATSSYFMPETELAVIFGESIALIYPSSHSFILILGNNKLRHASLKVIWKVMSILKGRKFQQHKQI

hTAS2R43 [2] = target: T1, hTAS2R43; experiment: calcium imaging in transfected cells, […] GIV3727 against […] aristolochic acid; conditions: read-out: % activation in presence of GIV3727
hTAS2R4 = target: T4, hTAS2R4 (Homo sapiens, UniProt Q9NYW5); experiment: calcium imaging in transfected cells, […] GIV3727 against […] colchicine; conditions: read-out: % activation in presence of GIV3727
T4 sequence (Q9NYW5 1-299): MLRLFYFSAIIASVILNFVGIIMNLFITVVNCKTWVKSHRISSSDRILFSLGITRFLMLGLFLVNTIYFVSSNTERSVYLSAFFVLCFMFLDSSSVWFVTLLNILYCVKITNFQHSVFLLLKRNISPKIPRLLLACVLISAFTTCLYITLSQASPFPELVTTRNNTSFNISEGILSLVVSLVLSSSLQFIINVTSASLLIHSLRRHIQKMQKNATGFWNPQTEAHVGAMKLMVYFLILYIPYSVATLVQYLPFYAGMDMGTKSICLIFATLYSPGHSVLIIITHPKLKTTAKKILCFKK

Sequence of hTAS2R40 (P59535 whole entry): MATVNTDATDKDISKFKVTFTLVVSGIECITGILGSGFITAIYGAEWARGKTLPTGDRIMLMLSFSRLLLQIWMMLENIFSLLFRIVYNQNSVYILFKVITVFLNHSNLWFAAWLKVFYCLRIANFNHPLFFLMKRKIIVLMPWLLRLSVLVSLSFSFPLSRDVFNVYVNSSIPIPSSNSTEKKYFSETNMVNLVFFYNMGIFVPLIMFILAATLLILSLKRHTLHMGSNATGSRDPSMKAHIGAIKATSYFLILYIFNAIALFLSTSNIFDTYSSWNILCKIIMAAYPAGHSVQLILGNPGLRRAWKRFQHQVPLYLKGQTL

Row | activity at 25 µM (hTAS2R40) [%] | IC50 (hTAS2R31) [µM] | activity at 25 µM (hTAS2R7) [%] | activity at 25 µM (hTAS2R43 [2]) [%] | activity at 25 µM (hTAS2R4) [%] | Structure (SMILES) | calcium imaging in transfected cells, agonist at 0.3 μM (hTAS2R43 [1])
1 |  |  |  |  |  | COc1cccc2c1cc([N+](=O)[O-])c1c(C(=O)O)cc3c(c12)OCO3 [aristolochic acid] | confers sensitivity to aristolochic acid, which activates hTAS2R43 but is inactive in the native hTAS2R46 (Figure S4)
2 | 3.2 ± 6.5 | 6.4 ± 2.4 | 47.8 ± 17 | 2.5 ± 4.9 | 45.8 ± 17.4 | CC1CCC(CCCC(=O)O)C1(C)C (stereo not drawn) [GIV3727, 4-(2,2,3-trimethylcyclopentyl)butanoic acid] | 
